# Laboratory results reported in publication PMC12254266, “Multicolored sequential resonance energy transfer for detection of simultaneous ligand binding at G protein-coupled receptors” (Nature Communications, 2025).
# Several values for one entry are separate records, joined by “and”; a condition that tells them apart may be missing. Equal values may be shown once.
# Columns and labels:
# Nluc-FFA1 = target: T1, Nluc-FFA1 (Homo sapiens, UniProt O14842); test: NanoBRET binding (saturation, competition, kinetics) at N terminal Nluc tagged FFA1; details: for Specific BRET (690/450)%: Figure 4Ci; for Specific BRET (690/450)% / Specific BRET (540/450)%: technical duplicates; for Specific BRET (540/450)%: Figure 4Cii
# T1 construct: expressed in transfected cells
# FFA1 = FFA1 (Homo sapiens, UniProt O14842); test: Ca2+ mobilisation (Fura2) in Flp-In T-REx 293 cells expressing Nluc-FFA1, FFA1-Nluc or untagged FFA1; type: cell-based; design: expressed in transfected cells; details: for Ca2+ Response as a % of T360 Response: single technical replicates
# Procedure, shortened: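 520 nm emission read at 340 and 380 nm excitation over 90 s spanning compound addition. Response taken as peak 340/380 ratio after subtracting pre-addition ratios.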
# FFA1-Nluc = FFA1-Nluc (Homo sapiens, UniProt O14842); test: Ca2+ mobilisation antagonism of FFA1 agonists (TUG-905, T360) in Flp-In T-REx 293 cells expressing FFA1-Nluc; type: cell-based; design: expressed in transfected cells
# Protocol: Nluc-FFA1, FFA1-Nluc or untagged FFA1 Flp-In T-REx 293 cells were plated at 50,000 cells per well in poly-D-lysine coated black clear bottom 96-well plates. Cells were then cultured for 24 h until reaching confluency before culture medium was replaced with medium containing 100 ng/mL of doxycycline to induce receptor expression. Cells were cultured for a further 24 h before the assay. On the day of the assay culture medium was removed and replaced with medium containing 3 μM Fura2-AM Ca^2+ dye. […] Fura2 fluorescent emission at 520 nm following excitation with each of 340 and 380 nm was measured in regular intervals both before and after adding test compounds for a total of 90 s per well. Calcium responses were determined by taking the peak 340/380 ratio after first subtracting the ratios obtained prior to addition of test compound. […]
# Ca2+ mobilization responses were measured in
# Flp-In T-REx 293 cells expressing FFA1-Nluc. Ca2+ responses to increasing concentrations
# pre-treated with 10 μM PPTQ. The mode of antagonism for PPTQ was assessed by
# N=3 (A-D, F, H) or N=4 (E, G) independent experiments. S ource data are provided as a […]
# Sequence of FFA1 (O14842 whole entry): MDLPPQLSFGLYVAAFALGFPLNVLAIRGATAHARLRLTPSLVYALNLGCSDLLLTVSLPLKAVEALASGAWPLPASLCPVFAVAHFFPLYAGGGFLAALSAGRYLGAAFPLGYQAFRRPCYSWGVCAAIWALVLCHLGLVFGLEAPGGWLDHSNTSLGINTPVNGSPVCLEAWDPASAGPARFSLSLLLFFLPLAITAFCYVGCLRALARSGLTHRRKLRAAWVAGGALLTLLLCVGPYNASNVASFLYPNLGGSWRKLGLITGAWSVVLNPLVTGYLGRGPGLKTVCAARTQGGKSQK
# T1 sequence (O14842 whole entry): as above
# Sequence of FFA1-Nluc (O14842 whole entry): as above
compound,measurement,setting,value
COc1ccc(CCCC(C)(C)C)c(N2CCC(COc3cccc(C(CC(=O)O)C4CC4)c3)CC2)c1.O=C(O)C(F)(F)F (stereo not drawn) [T360],Specific BRET (690/450)%,Nluc-FFA1; log[Ligand] -5,144.71% and 144.91% and 150.40% and 149.82% and 134.29% and 145.90%
same,Specific BRET (690/450)%,Nluc-FFA1; log[Ligand] -5.5,150.41% and 165.34% and 156.87% and 151.43% and 153.00% and 148.40%
same,Specific BRET (690/450)%,Nluc-FFA1; log[Ligand] -6,147.37% and 160.23% and 150.08% and 152.06% and 150.91% and 153.01%
same,Specific BRET (690/450)%,Nluc-FFA1; log[Ligand] -6.5,152.25% and 156.48% and 155.51% and 156.07% and 157.69% and 151.71%
same,Specific BRET (690/450)%,Nluc-FFA1; log[Ligand] -7,145.58% and 149.69% and 148.14% and 147.21% and 151.85% and 147.91%
same,Specific BRET (690/450)%,Nluc-FFA1; log[Ligand] -8,131.96% and 136.95% and 136.24% and 131.47% and 126.78% and 129.57%
same,Specific BRET (690/450)%,Nluc-FFA1; log[Ligand] -9,110.80% and 118.14% and 114.71% and 107.71% and 113.55% and 115.30%
same,Specific BRET (690/450)%,Nluc-FFA1; log[Ligand] -10,99.19% and 105.01% and 94.99% and 98.91% and 101.09% and 100.81%
same,Specific BRET (540/450)%,Nluc-FFA1; log[Ligand] -6.5,37.02% and 22.26% and 31.97% and 27.51% and 29.14% and 29.84% and 21.82% and 24.91%
same,Specific BRET (540/450)%,Nluc-FFA1; log[Ligand] -7,53.44% and 33.59% and 38.71% and 49.07% and 47.92% and 48.08% and 44.12% and 39.90%
same,Specific BRET (540/450)%,Nluc-FFA1; log[Ligand] -8,84.61% and 81.81% and 70.02% and 81.70% and 81.41% and 76.64% and 80.12%
same,Specific BRET (540/450)%,Nluc-FFA1; log[Ligand] -9,105.73% and 99.36% and 90.61% and 103.73% and 98.31% and 99.33% and 93.77%
same,Specific BRET (540/450)%,Nluc-FFA1; log[Ligand] -10,104.20% and 95.80% and 91.09% and 108.91% and 101.37% and 98.63% and 98.32% and 101.68%
same,"'bottom' of the IC50 curve fit, Nano-BRET TUG-2591","Nluc-FFA1; percentage of binding in the absence of competing ligand, tracer TUG-2591 100 nM",150%
same,"'bottom' of the IC50 curve fit, Nano-BRET TUG-2597","Nluc-FFA1; percentage of binding in the absence of competing ligand, tracer TUG-2597 […]",5.3%
same,pIC50 Nano-BRET TUG-2597,"Nluc-FFA1; tracer TUG-2597 […], NBD/Nluc",7.1±0.03
same,pKi Nano-BRET TUG-2597,Nluc-FFA1; using Kd TUG-2597 380 nM,7.4±0.03
same,pEC50,"FFA1; Ca2+ data, mean±SEM, NR = No response",7.48±0.31
same,Ca2+ Response as a % of T360 Response,FFA1; log[Ligand] -6,107.28% and 92.72% and 101.13% and 98.87% and 101.25% and 98.75%
same,Ca2+ Response as a % of T360 Response,FFA1; log[Ligand] -6.5,78.71% and 83.08% and 86.23% and 89.07% and 107.10% and 103.71%
same,Ca2+ Response as a % of T360 Response,FFA1; log[Ligand] -7,50.40% and 57.83% and 53.05% and 49.34% and 105.47% and 92.83%
same,Ca2+ Response as a % of T360 Response,FFA1; log[Ligand] -7.5,52.48% and 51.74% and 26.53% and 33.96% and 89.83% and 84.58%
same,Ca2+ Response as a % of T360 Response,FFA1; log[Ligand] -8,4.55% and 3.96% and 1.45% and 1.23% and 56.26% and 55.08%
same,Ca2+ Response as a % of T360 Response,FFA1; log[Ligand] -9,6.44% and -16.92% and -0.13% and -0.73% and -0.82% and -0.55%
same,Ca2+ Response as a % of T360 Response,FFA1; log[Ligand] -10,-18.12% and -11.48% and -0.62% and 0.09% and -1.11% and 0.64%
same,EMax,"FFA1; percentage of response to 10 μM T360, NR = No response",105±5%
same,Ca2% Response (%),"FFA1-Nluc; log[T360] -5, Veh (no antagonist), Sup Figure 6B/6D",93.75% and 106.25% and 103.05% and 96.95%
same,Ca2% Response (%),"FFA1-Nluc; log[T360] -5, with 1 μM GW1100",103.36% and 82.58% and 106.13% and 87.84% and 101.04% and 85.87%
same,Ca2% Response (%),"FFA1-Nluc; log[T360] -6, 10 μΜ (antagonist not given), Sup Figure 6F",76.18% and 67.98% and 49.56% and 55.62% and 87.66% and 92.64%
same,Ca2% Response (%),"FFA1-Nluc; log[T360] -6, Veh (no antagonist), Sup Figure 6B/6D",104.34% and 101.89% and 110.55% and 104.28% and 99.18% and 100.82%
same,Ca2% Response (%),"FFA1-Nluc; log[T360] -6, Veh (no antagonist), Sup Figure 6F",99.06% and 95.34% and 97.85% and 90.61% and 102.43% and 99.32%
same,Ca2% Response (%),"FFA1-Nluc; log[T360] -6, column head 1.0 μM (antagonist not given), Sup Figure 6F",76.88% and 59.19% and 87.71% and 76.79% and 92.25% and 102.12%
same,Ca2% Response (%),"FFA1-Nluc; log[T360] -6, with 1 μM GW1100",91.67% and 83.66% and 88.97% and 81.49% and 113.97% and 109.62%
same,Ca2% Response (%),"FFA1-Nluc; log[T360] -6.5, Veh (no antagonist), Sup Figure 6F",94.10% and 96.59% and 92.66% and 91.86% and 93.32% and 89.24%
same,Ca2% Response (%),"FFA1-Nluc; log[T360] -6.5, column head 1.0 μM (antagonist not given), Sup Figure 6F",60.34% and 48.04% and 59.96% and 55.53% and 61.67% and 49.63%
same,Ca2% Response (%),"FFA1-Nluc; log[T360] -7, Veh (no antagonist), Sup Figure 6B/6D",82.83% and 93.76% and 57.76% and 86.64% and 99.93%
same,Ca2% Response (%),"FFA1-Nluc; log[T360] -7, Veh (no antagonist), Sup Figure 6F",93.07% and 80.87% and 91.43% and 68.96% and 59.63% and 63.91%
same,Ca2% Response (%),"FFA1-Nluc; log[T360] -7, column head 1.0 μM (antagonist not given), Sup Figure 6F",3.96% and 7.11% and 12.73% and 6.84% and 9.24% and 5.08%
same,Ca2% Response (%),"FFA1-Nluc; log[T360] -8, 10 μΜ (antagonist not given), Sup Figure 6F",1.71% and -1.05% and -0.90%
same,Ca2% Response (%),"FFA1-Nluc; log[T360] -8, column head 1.0 μM (antagonist not given), Sup Figure 6F",-0.81% and -3.31% and 3.71% and 5.53%
same,Ca2% Response (%),"FFA1-Nluc; log[T360] -9, Veh (no antagonist), Sup Figure 6B/6D",2.38% and -2.45% and 0.48% and 0.09% and -1.34% and 1.34%
same,Ca2% Response (%),"FFA1-Nluc; log[T360] -11, Veh (no antagonist), Sup Figure 6B/6D",-3.34% and -2.39% and -1.53% and 0.46% and 1.72% and -0.55%
